Experimental data taken from the supplement of paper PMC10307832.

How the values were obtained:
Test in all cases: relative viability (nuclei count vs DMSO), 5 days (fraction); higher = more cells survive
201T = system: 201T
How it was run: (§1)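 Relative viability is defined as nuclei in treated wells over nuclei in vehicle wells. Duplicate plates were run and medians reported. Lung cancer cell lines in 1536-well plates were dosed by pin tool one day after seeding, with one drug or with a fixed anchor-drug dose plus five library-drug doses (not always all listed) in √10 steps, and nuclei were counted after 5 days.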

ABC-1 = system: ABC-1
How it was run: as §1

CAL-12T = system: CAL-12T
How it was run: as §1

ChaGo-K-1 = system: ChaGo-K-1
How it was run: as §1

EMC-BAC-2 = system: EMC-BAC-2
How it was run: as §1

H3255 = system: H3255
How it was run: as §1

HOP-62 = system: HOP-62
How it was run: as §1

LK-2 = system: LK-2
How it was run: as §1

LXF-289 = system: LXF-289
How it was run: as §1

NCI-H1651 = system: NCI-H1651
How it was run: as §1

NCI-H1734 = system: NCI-H1734
How it was run: as §1

NCI-H1755 = system: NCI-H1755
How it was run: as §1

NCI-H2009 = system: NCI-H2009
How it was run: as §1

NCI-H2087 = system: NCI-H2087
How it was run: as §1

NCI-H2126 = system: NCI-H2126
How it was run: as §1

NCI-H2170 = system: NCI-H2170
How it was run: as §1

NCI-H3122 = system: NCI-H3122
How it was run: as §1

NCI-H322M = system: NCI-H322M
How it was run: as §1

NCI-H441 = system: NCI-H441
How it was run: as §1

NCI-H647 = system: NCI-H647
How it was run: as §1

PC-14 = system: PC-14
How it was run: as §1

SK-MES-1 = system: SK-MES-1
How it was run: as §1

O=C(O)CCCCC(CCSCc1ccccc1)SCc1ccccc1 (stereo not given) [CPI-613] + CC(=O)c1c(C)c2cnc(Nc3ccc(N4CCNCC4)cn3)nc2n(C2CCCC2)c1=O [Palbociclib] (partner 0.5 µM)
relative viability (201T; first compound 5 µM): 0.341
relative viability (201T; first compound 15.81 µM): 0.34
relative viability (201T; first compound 50 µM): 0.353
relative viability (201T; first compound 158.11 µM): 0.185
relative viability (201T; first compound 500 µM): 0.204
relative viability (ABC-1; first compound 5 µM): 0.603
relative viability (ABC-1; first compound 15.81 µM): 0.669
relative viability (ABC-1; first compound 50 µM): 0.639
relative viability (ABC-1; first compound 158.11 µM): 0.415
relative viability (ABC-1; first compound 500 µM): 0.4
relative viability (CAL-12T; first compound 5 µM): 0.321
relative viability (CAL-12T; first compound 15.81 µM): 0.283
relative viability (CAL-12T; first compound 50 µM): 0.461
relative viability (CAL-12T; first compound 158.11 µM): 0.0907
relative viability (CAL-12T; first compound 500 µM): 0.0203
relative viability (ChaGo-K-1; first compound 5 µM): 0.868
relative viability (ChaGo-K-1; first compound 15.81 µM): 0.902
relative viability (ChaGo-K-1; first compound 50 µM): 0.842
relative viability (ChaGo-K-1; first compound 158.11 µM): 0.339
relative viability (ChaGo-K-1; first compound 500 µM): 0.419
relative viability (EMC-BAC-2; first compound 5 µM): 0.524
relative viability (EMC-BAC-2; first compound 15.81 µM): 0.506
relative viability (EMC-BAC-2; first compound 50 µM): 0.514
relative viability (EMC-BAC-2; first compound 158.11 µM): 0.267
relative viability (EMC-BAC-2; first compound 500 µM): 0.265
relative viability (H3255; first compound 5 µM): 0.296
relative viability (H3255; first compound 15.81 µM): 0.302
relative viability (H3255; first compound 50 µM): 0.339
relative viability (H3255; first compound 158.11 µM): 0.328
relative viability (H3255; first compound 500 µM): 0.302
relative viability (HOP-62; first compound 5 µM): 0.437
relative viability (HOP-62; first compound 15.81 µM): 0.45
relative viability (HOP-62; first compound 50 µM): 0.427
relative viability (HOP-62; first compound 158.11 µM): 0.186
relative viability (HOP-62; first compound 500 µM): 0.126
relative viability (LK-2; first compound 5 µM): 0.766
relative viability (LK-2; first compound 15.81 µM): 0.684
relative viability (LK-2; first compound 50 µM): 0.726
relative viability (LK-2; first compound 158.11 µM): 0.532
relative viability (LK-2; first compound 500 µM): 0.547
relative viability (LXF-289; first compound 5 µM): 0.561
relative viability (LXF-289; first compound 15.81 µM): 0.59
relative viability (LXF-289; first compound 50 µM): 0.558
relative viability (LXF-289; first compound 158.11 µM): 0.509
relative viability (LXF-289; first compound 500 µM): 0.393
relative viability (NCI-H1651; first compound 5 µM): 0.51
relative viability (NCI-H1651; first compound 15.81 µM): 0.466
relative viability (NCI-H1651; first compound 50 µM): 0.487
relative viability (NCI-H1651; first compound 158.11 µM): 0.46
relative viability (NCI-H1651; first compound 500 µM): 0.514
relative viability (NCI-H1734; first compound 5 µM): 0.314
relative viability (NCI-H1734; first compound 15.81 µM): 0.274
relative viability (NCI-H1734; first compound 50 µM): 0.335
relative viability (NCI-H1734; first compound 158.11 µM): 0.199
relative viability (NCI-H1734; first compound 500 µM): 0.144
relative viability (NCI-H1755; first compound 5 µM): 0.513
relative viability (NCI-H1755; first compound 15.81 µM): 0.432
relative viability (NCI-H1755; first compound 50 µM): 0.454
relative viability (NCI-H1755; first compound 158.11 µM): 0.448
relative viability (NCI-H1755; first compound 500 µM): 0.393
relative viability (NCI-H2009; first compound 5 µM): 0.229
relative viability (NCI-H2009; first compound 15.81 µM): 0.207
relative viability (NCI-H2009; first compound 50 µM): 0.221
relative viability (NCI-H2009; first compound 158.11 µM): 0.0593
relative viability (NCI-H2009; first compound 500 µM): 0.0128
relative viability (NCI-H2087; first compound 5 µM): 0.253
relative viability (NCI-H2087; first compound 15.81 µM): 0.197
relative viability (NCI-H2087; first compound 50 µM): 0.19
relative viability (NCI-H2087; first compound 158.11 µM): 0.0923
relative viability (NCI-H2087; first compound 500 µM): 0.0098
relative viability (NCI-H2126; first compound 5 µM): 0.334
relative viability (NCI-H2126; first compound 15.81 µM): 0.363
relative viability (NCI-H2126; first compound 50 µM): 0.338
relative viability (NCI-H2126; first compound 158.11 µM): 0.213
relative viability (NCI-H2126; first compound 500 µM): 0.162
relative viability (NCI-H2170; first compound 5 µM): 0.379
relative viability (NCI-H2170; first compound 15.81 µM): 0.415
relative viability (NCI-H2170; first compound 50 µM): 0.382
relative viability (NCI-H2170; first compound 158.11 µM): 0.372
relative viability (NCI-H2170; first compound 500 µM): 0.219
relative viability (NCI-H3122; first compound 5 µM): 0.178
relative viability (NCI-H3122; first compound 15.81 µM): 0.198
relative viability (NCI-H3122; first compound 50 µM): 0.175
relative viability (NCI-H3122; first compound 158.11 µM): 0.155
relative viability (NCI-H3122; first compound 500 µM): 0.145
relative viability (NCI-H322M; first compound 5 µM): 0.466
relative viability (NCI-H322M; first compound 15.81 µM): 0.47
relative viability (NCI-H322M; first compound 50 µM): 0.494
relative viability (NCI-H322M; first compound 158.11 µM): 0.513
relative viability (NCI-H322M; first compound 500 µM): 0.288
relative viability (NCI-H441; first compound 5 µM): 0.222
relative viability (NCI-H441; first compound 15.81 µM): 0.197
relative viability (NCI-H441; first compound 50 µM): 0.18
relative viability (NCI-H441; first compound 158.11 µM): 0.136
relative viability (NCI-H441; first compound 500 µM): 0.0142
relative viability (NCI-H647; first compound 5 µM): 0.341
relative viability (NCI-H647; first compound 15.81 µM): 0.312
relative viability (NCI-H647; first compound 50 µM): 0.316
relative viability (NCI-H647; first compound 158.11 µM): 0.022
relative viability (NCI-H647; first compound 500 µM): 0.0072
relative viability (PC-14; first compound 5 µM): 0.534
relative viability (PC-14; first compound 15.81 µM): 0.54
relative viability (PC-14; first compound 50 µM): 0.49
relative viability (PC-14; first compound 158.11 µM): 0.0565
relative viability (PC-14; first compound 500 µM): 0.0114
relative viability (SK-MES-1; first compound 5 µM): 0.305
relative viability (SK-MES-1; first compound 15.81 µM): 0.279
relative viability (SK-MES-1; first compound 50 µM): 0.277
relative viability (SK-MES-1; first compound 158.11 µM): 0.14
relative viability (SK-MES-1; first compound 500 µM): 0.145
